Results from PubChem BioAssay (NCI).
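Method: 48-hour compound exposure of cells in 96-well plates, five concentrations, linear interpolation of endpoints. TGI is the concentration that stops growth completely.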 Where a SMILES comes first, the peptide text is derived from it. Bridges are numbered along the chain shown (N, C = ends). [ ]: non-standard residue; d: D form. The star is where a group is joined. Cbz = O=C(OCc1ccccc1)*; Aib = CC(C)(N)C(=O)O; OBn = c1ccc(CO*)cc1; βAla = NCCC(=O)O

How the values were obtained:
Test in all cases: NCI tumour cell line growth inhibition, 48 h
DU-145 prostate = system: DU-145 prostate
MDA-N = system: MDA-N
NCI-H226 lung = system: NCI-H226 lung
CAKI-1 renal = system: CAKI-1 renal
SNB-19 CNS = system: SNB-19 CNS
HOP-92 NSCLC = system: HOP-92 NSCLC
SF-539 CNS = system: SF-539 CNS
PC-3 prostate = system: PC-3 prostate
SW-620 colon = system: SW-620 colon
SK-MEL-2 melanoma = system: SK-MEL-2 melanoma
HCT-116 colon = system: HCT-116 colon
SF-295 CNS = system: SF-295 CNS
COLO 205 colon = system: COLO 205 colon
LOX IMVI melanoma = system: LOX IMVI melanoma
ACHN renal = system: ACHN renal
NCI-H23 lung = system: NCI-H23 lung
OVCAR-4 ovarian = system: OVCAR-4 ovarian
SK-MEL-5 melanoma = system: SK-MEL-5 melanoma
OVCAR-8 ovarian = system: OVCAR-8 ovarian
A498 renal = system: A498 renal

| Structure (SMILES) | TGI (DU-145 prostate) [µM] | TGI (MDA-N) [µM] | TGI (NCI-H226 lung) [µM] | TGI (CAKI-1 renal) [µM] | TGI (SNB-19 CNS) [µM] | TGI (HOP-92 NSCLC) [µM] | TGI (SF-539 CNS) [µM] | TGI (PC-3 prostate) [µM] | TGI (SW-620 colon) [µM] | TGI (SK-MEL-2 melanoma) [µM] | TGI (HCT-116 colon) [µM] | TGI (SF-295 CNS) [µM] | TGI (COLO 205 colon) [µM] | TGI (LOX IMVI melanoma) [µM] | TGI (ACHN renal) [µM] | TGI (NCI-H23 lung) [µM] | TGI (OVCAR-4 ovarian) [µM] | TGI (SK-MEL-5 melanoma) [µM] | TGI (OVCAR-8 ovarian) [µM] | TGI (A498 renal) [µM] |
| --- | --- | --- | --- | --- | --- | --- | --- | --- | --- | --- | --- | --- | --- | --- | --- | --- | --- | --- | --- | --- |
| CCOc1cc(NC(C)=O)ccc1C(=O)NN1C(=O)C(Oc2ccccc2)C1c1ccc(O)c(OC)c1 (centres undefined) | > 100 | > 100 | > 100 | > 100 | > 100 | > 100 | > 100 | > 100 | > 100 | 81.2 | > 100 | > 100 | 83.9 | > 100 | > 100 | > 100 | > 100 | 49.5 | 96.8 |  |
| CCOC(=O)N/N=C(/N)Cc1ccccc1 | > 100 | > 100 |  | > 100 | > 100 | > 100 | > 100 | > 100 | > 100 | > 100 | > 100 | > 100 | > 100 | > 100 | > 100 |  |  | > 100 | > 100 | > 100 |
| NC(N)=N/N=C/c1c(Cl)nc2sccn12 | > 100 | > 100 | 66.9 | > 100 | > 100 | 70.6 | 37.8 | > 100 | 41.1 |  | 31.7 | 44.1 | 33.5 | 39.6 | 33.4 | > 100 | 46.4 | 29.2 | > 100 | > 100 |
| CC[C@@H]1/C=C/C=C/C[C@H](C)[C@@H](O)[C@](C)(O)C(=O)[C@H](C)[C@@H](O)[C@H](C)C(=O)[C@H](C)[C@@H](O)[C@H](C)/C=C/C(=O)O[C@H]2[C@@H](C)[C@@H](CC1)O[C@]1(O[C@H](CC(C)O)[C@H](C)CC1=O)[C@@H]2C (some centres undefined) | 8.78 | 10.7 |  | 18 | > 25 | 9.98 | 8.75 | 6.41 | > 25 | 9.61 | 6.26 | 0.114 | 5.07 | 9.2 | 9.19 | 12.4 | > 19.7 | 3.53 | > 25 | 7.93 |
| CSc1nc(Cl)c2c(n1)Sc1nc3cc4c(cc3n1C2O)OCO4 (centres undefined) | > 100 | 36.1 | 6.09 | > 100 | > 100 |  | 0.327 | > 60.3 | > 81.8 | > 64.4 | > 47.4 | > 83.2 | 0.686 | 0.746 | > 100 | > 100 | > 100 | 7.49 | 3.85 | 40.4 |
| CCOC(=O)C(=C(SC)SC)c1nn2c(=O)cc(C)nc2s1 | 30.1 | 30.6 | 44.6 | 60.1 | 86 | 34.4 | 32.7 | 56.6 | 41.3 | 37.5 | 30.5 | > 100 | 36.2 | 29.5 | 33.7 | 65.9 | > 100 | 36.9 | 43.9 |  |
| O=[N+]([O-])C(C(Cl)=C(Cl)Cl)=C(N1CCOCC1)N1CCOCC1 | > 100 | > 100 | > 100 | > 100 | > 100 |  | > 100 | > 100 |  | > 100 | > 100 | > 100 | > 100 | > 100 | > 100 | > 100 | > 100 | > 100 | > 100 | > 100 |
| Clc1cccc(Cl)c1C1SCC2=Nc3ccccc3CN21 (centres undefined) | 68.4 | > 100 |  | > 100 | 25.8 | > 100 | 32.9 | 52.4 | > 100 |  | 25.7 | 33.8 | 27 | 41.1 |  | 34.7 | > 100 | 29.2 |  | > 100 |
| COc1ccc2c(c1)OCc1c-2oc2ccccc2c1=O | > 100 | > 100 | > 100 | > 100 |  | > 100 | > 100 | > 100 |  | > 100 | > 100 | > 100 | > 100 | > 100 | > 100 |  |  | > 100 | > 100 | > 100 |
| Cc1nc(N)c(N2CCNCC2)c(=O)[nH]1 | > 100 | > 100 | > 100 |  | > 100 | > 100 | > 100 | > 100 | > 100 | > 100 | > 100 | > 100 | > 100 | > 100 | > 100 | > 100 |  |  | > 100 | > 100 |
| S=C1Cc2c([nH]c3ccccc23)-c2ccccc2N1 | > 100 | > 100 | 89.5 | 79 | > 100 | > 100 | > 100 | > 100 | > 100 |  | > 100 | > 100 | > 100 | > 100 | 80.6 | > 100 | > 100 | > 100 | > 100 |  |
| O=C(CC(=O)N(C(=O)c1ccccc1)c1ccc(Cl)cc1)N/N=C\c1cc(N=Nc2ccccc2Cl)ccc1O | > 100 | > 100 | > 100 | > 100 | 94.2 | 59.6 | > 100 | > 100 | > 100 |  | > 100 | > 100 | > 100 | > 100 | > 100 | > 100 |  |  | > 100 | 85.6 |
| COc1ccccc1N1C(=O)/C(=C\c2cccc(Oc3ccccc3)c2)SC1c1ccccc1 (centres undefined) | > 100 | 64.6 |  | > 100 | > 100 | > 100 | > 100 | > 100 | 71 | > 100 | > 100 | > 100 | 55 | > 100 | > 100 | 98.1 | > 100 | 32.8 | > 100 | > 100 |
| CC1CN=C(Nc2ccc(S(N)(=O)=O)cc2)S1 (centres undefined) | > 100 | > 10 |  | > 100 | > 100 | > 100 | > 100 | > 10 | > 100 | > 100 | > 100 | > 100 | > 100 | > 10 | > 100 | > 100 | > 100 | > 100 | > 100 | > 100 |
| O=C(CCc1ccc(O)cc1)NCCc1ccc(O)cc1 | > 100 | > 100 | > 100 | > 100 | > 100 | > 100 | > 100 | > 100 |  | > 100 | > 100 | > 100 | > 100 | > 100 | > 100 | > 100 | > 100 | > 100 | > 100 | > 100 |
| Cc1ccccc1Nc1cn(COCc2ccccc2)c(=O)[nH]c1=O | > 100 | > 100 |  | > 100 | > 100 | > 100 |  | > 100 | > 100 |  | > 100 | > 100 | > 100 | > 100 | > 100 | > 100 | > 100 | > 100 |  | > 100 |
| Nc1ccc(C(=O)Nn2c(-c3ccccc3)nc3ccccc3c2=O)cc1 | > 100 | > 100 | > 100 |  | > 100 | > 100 | > 100 | > 100 | > 100 |  | > 100 | > 100 | > 100 | > 100 | > 100 | > 100 | > 100 | > 100 | > 100 | > 100 |
| S=C(/N=c1/sc(Nc2ccccc2)nc2sc3c(c12)CCCC3)Nc1ccccc1 | > 62.5 | > 62.5 | > 62.5 | > 62.5 | > 62.5 | > 62.5 |  | > 62.5 | > 62.5 | > 62.5 | > 62.5 |  | > 62.5 | > 62.5 | > 62.5 | > 62.5 | > 62.5 | > 62.5 |  | > 62.5 |
| CC1(C)NC(=O)C(NC(=O)C(CC(=O)OCc2ccccc2)NC(=O)OCc2ccccc2)CCCCNC(=O)CCNC1=O (centres undefined) (Cbz-D(OBn)K[Aib][βAla]; lactam 2-C; configuration not given here) | > 100 | > 100 | > 100 | > 100 | > 100 | > 100 | > 100 | > 100 | > 100 |  | > 100 | > 100 | > 100 | > 100 | > 100 | > 100 | > 100 | > 100 | > 100 | > 100 |
| CCOC(=O)Cn1sc2ncc([N+](=O)[O-])cc2c1=O | > 100 | 24.9 | > 100 |  |  | 26.9 | 38.5 | 28 | 30.6 | 70.9 | 31.1 | 34.8 | 25.6 | 26.4 | 29.5 | 39.3 | 38 | 85.3 | 30.3 | > 100 |
| CCCN=C(NC(=O)c1ccc(Cl)cc1)SC | > 100 | > 100 | > 100 | > 100 | > 100 |  | > 100 | > 100 | > 100 | > 100 | > 100 | > 100 | > 100 | > 100 | > 100 | > 100 | > 100 | > 100 | > 100 | 99.8 |
| O=C1C(Br)=CC2(C=C1Br)CCN=c1c(O)c3c(c(O)c12)=NC=N3 | 29.6 | 3.34 | 37.4 | 41 |  | 24.8 | 32.1 | > 100 | 31.9 | 21.3 | 30.3 | 30 | 37.6 | 27.1 | 27.7 | 26.9 | 27.8 | 23.4 | 31.9 | 33.2 |
| Clc1ccc2c(NCCCCN=Cc3ccccc3)ccnc2c1 | 80.8 | 23.9 | 20 |  | 45.7 | 26.3 | 24.7 | 25.1 | 25.2 | 24.5 | 18.4 | 28 | 18.1 | > 100 | 49 | 25.1 | 28.1 | 26.5 | 32 | 7.26 |
| CCOC(=O)NC(Nc1ccc(S(=O)(=O)Nc2ncccn2)cc1)(C(=O)OCC)C(F)(F)F (centres undefined) | > 100 | > 100 | > 100 | > 100 | > 100 | > 100 | > 100 | > 100 | > 100 | > 100 | > 100 | > 100 | > 100 | > 100 | > 100 | > 100 | > 100 | > 100 | > 100 |  |
| Cc1cc(O)c(/C=N/C(=S)NCCc2ccccc2)c(=O)o1 | > 100 | > 100 | > 100 | > 100 | > 100 | > 100 | > 100 | > 100 | > 100 | > 100 | > 100 | > 100 | > 100 | > 100 | > 100 | > 100 | > 100 | > 100 | > 100 |  |
